Source: paper PMC7923228, “Phosphoinositide 3-Kinase (PI3K) Reactive Oxygen Species (ROS)-Activated Prodrug in Combination with Anthracycline Impairs PI3K Signaling, Increases DNA Damage Response and Reduces Breast Cancer Cell Growth” (International Journal of Molecular Sciences, 2021)
Values joined by “and” are separate entries in the source; they are usually repeats but may differ in a detail not shown here. Equal entries are not always repeated. Where two headings read alike, the source gives them in different places.

How the values were obtained:
[1] = test system: MCF10A, MDA-MB-231, MDA-MB-361 and MDA-MB-453 cells; test: Intracellular ROS, DCFDA assay; assay type: cell-based; settings: 125 nM, 30 min
Experimental: The cells were resuspended in dichlorodihydrofluorescein diacetate (DCFH-DA) for 30 min […] using the CellQuest software v4.0.1 (Becton Dickinson and Company, Franklin Lakes, NJ, USA) to measure the ROS levels. The DCFH-DA levels were measured using a SPECTRAmax PLUS Microplate Spectrophotometer Plate Reader (Molecular Devices Corporation).

[2] = test system: p-AKT, p-P53, p-CHK1, p-CHK2 in MDA-MB-231, MDA-MB-361 and MDA-MB-453 cells; assay type: cell-based, Human; settings: for phosphorylation of AKT at Thr308: data not shown; for phosphorylation of CHK2 at T68: most notably in MDA-MB-361 and MDA-MB-453 versus vehicle control, 24 h
Source text: Cells were lysed in RIPA buffer (Thermo Fisher Scientific, Waltham, MA, USA, Cat#BP-115) supplemented with protease and phosphatase inhibitors (Thermo Fisher Scientific, Cat#88669). […] Peroxidase-conjugated secondary antibodies (Santa Cruz Biotechnology) were used and protein signals were detected using Pierce ECL western blotting substrate (Thermo Fisher Scientific, Cat# 32106).

[3] = test system: MDA-MB-231 cells
Experimental: (§1) Growth kinetics of fibroblasts, MCF10A, MDA-MB-231, MDA-MB-361 and MDA-MB-453 cells was determined by the 4,5-dimethylthiazol-2-yl)-2,5-diphenyltetrazolium bromide (MTT) assay. Briefly, 2 × 10^4 cells/well were seeded in 96 well plates in triplicate. […] MDA-MB-231 cells were treated with 500–5000 nM, MDA-MB-361 with 50–450 nM and MDA-MB-453 with 100–4000 nM of doxorubicin for 72 h. […] MDA-MB-231 cells were treated with 50–50,000 pM docetaxel. MDA-MB-361 cells were treated with 10–90 nM of docetaxel. MDA-MB-453 cells were subjected 50–10,000 pM of docetaxel. The cell proliferation was analyzed after 72 h and represented as mean of triplicate values relative to DMSO control.

[4] = test system: MDA-MB-361 cells
Experimental: as §1

[5] = test system: MDA-MB-453 cells
Experimental: as §1

[6] = test system: MDA-MB-361 cells; test: cells; settings: Homo sapiens, MDA-MB-361, 72 h
Experimental: as §1

[7] = test system: MDA-MB-231 cells; test: MTT cell viability assay, 72 h
Experimental: as §1

[8] = test system: MDA-MB-453 cells; test: MTT cell viability assay, 72 h
Experimental: as §1

[9] = test system: NH fibroblasts; test: cells; assay type: cell-based
[10] = test system: MCF10A cells; test: cells; assay type: cell-based; settings: for IC50: 72 h MTT
Experimental: as §1

[11] = test system: PI3Kɣ; set-up: method as in PMID 19584227; settings: read-out: IC50 against PI3Kɣ; cited from earlier work
[12] = test system: PIK3CA-mutated, hormone receptor (HR)-positive, HER2-negative advanced breast cancer; set-up: method as in PMID 31091374; settings: cited from earlier work
[13] = test system: MDA-MB-231, MDA-MB-361 and MDA-MB-453 cells; test: MTT cell viability assay, combination treatments, 72 h; assay type: cell-based, Human
Experimental: as §1

COc1cccc2c1C(=O)c1c(O)c3c(c(O)c1C2=O)C[C@@](O)(C(=O)CO)C[C@@H]3O[C@H]1C[C@H](N)[C@H](O)[C@H](C)O1 [Doxorubicin]
ROS levels [1]: induced ROS | p53 phosphorylation at Ser15 [2]: didn’t observe p53 post-translational modification activation | phosphorylation of AKT at Thr308 [2]: no effect | phosphorylation of CHK2 at T68 [2]: increased phosphorylation | IC50 [3]: 185 nM and 146 nM | IC50 [4]: 111 nM and 110 nM and 73.2 nM | IC50 [5]: 530 nM and 516 nM and 478 nM | IC50 ([6]; read-out: IC50 (MDA-MB-361)): 116 nM | IC50 ([7]; Homo sapiens, MDA-MB-231, 72 h, read-out: IC50 (MDA-MB-231)): 405 nM | IC50 ([8]; Homo sapiens, MDA-MB-453, 72 h, read-out: IC50 (MDA-MB-453)): 578 nM

CC(=O)N[C@@H](CS)C(=O)O [NAC, N-Acetyl Cysteine]
rescue of antiproliferative effects of RIDR-PI-103 and doxorubicin ([7]; MDA-MB-231, 10 mM NAC, 125 nM doxorubicin ± 30 µM RIDR-PI-103, 24 hour): rescued the antiproliferative effects

Oc1cccc(-c2nc(N3CCOCC3)c3oc4ncccc4c3n2)c1 [PI-103, 3-(4-morpholinopyrido[3′,2′:4,5]furo[3,2-d]pyrimidin-2-yl)phenol]
IC50 ([9]; Fibroblast, fibroblasts, 72 h MTT): 3900 nM | IC50 ([10]; Homo sapiens, MCF-10A): 3800 nM | IC50 [6]: 1700 nM | IC50 [11]: 15 nM | IC50 ([8]; Homo sapiens, MDA-MB-453, 72 h): 820 nM

Cc1nc(NC(=O)N2CCC[C@H]2C(N)=O)sc1-c1ccnc(C(C)(C)C(F)(F)F)c1 [alpelisib, Alpelisib]
improvement of progression-free survival compared with fulvestrant alone ([12]; alpelisib in combination with fulvestrant, patients who had received endocrine therapy previously): about 5 months | adverse events ([12]; patients receiving alpelisib): high risk of hyperglycemia-related adverse events

CC(=O)O[C@@]12CO[C@@H]1C[C@H](O)[C@@]1(C)C(=O)[C@H](O)C3=C(C)[C@@H](OC(=O)[C@H](O)[C@@H](NC(=O)OC(C)(C)C)c4ccccc4)C[C@@](O)([C@@H](OC(=O)c4ccccc4)[C@H]21)C3(C)C [docetaxel]
suppression of breast cancer cell growth in combination with RIDR-PI-103 ([13]; docetaxel + 10, 15 or 30 µM RIDR-PI-103, 72 h): less effective

ROS-induced drug release 3-(4-morpholinopyrido[3′,2′:4,5]furo[3,2-d]pyrimidin-2-yl)phenol [RIDR-PI-103]
response to treatment (growth) ([9]; normal fibroblasts, 50 µM or greater, 72 h): did not respond appreciably | response to treatment (growth) ([10]; 50 µM or greater, 72 h): did not respond appreciably | IC50 [10]: 78600 nM | phosphorylation of AKT at Thr308 [2]: no effect | phosphorylation of CHK2 at T68 [2]: increased phosphorylation | effect on cytotoxicity of doxorubicin ([13]; 10, 15 and 30 µM RIDR-PI-103, MDA-MB-231, MDA-MB-361 and MDA-MB-453): enhances the cytotoxicity | growth inhibition ([13]; three breast cancer cell lines, 50 µM or greater, 72 h): showed growth inhibition | IC50 ([4]; MDA-MB-361, 72 h MTT): 43000 nM | IC50 ([7]; MDA-MB-231, 72 h MTT): 47300 nM | IC50 ([8]; MDA-MB-453, 72 h MTT): 49000 nM and 49100 nM
